Experimental findings from patent US12685754B2, “Method of fixating and stabilizing nitric oxide metabolites through fermentation of nitrogen-containing natural substance” (priority 2019, dated 2026) are described below.

Entries after “also recorded” stand apart in the source; their conditions may differ.

Data set [1] deals with mouse with DNFB-induced atopic dermatitis. As to the kind of experiment: DNFB-induced atopic dermatitis mouse: visual examination, ear swelling, histopathology. In kind it is in vivo, Balb/c mouse. The note with it: histopathological test, H&E, last day of test; control DNFB + DW 843.17 ± 55.22. How it is done:
As a test animal, 5-week old male Balb/c mouse was obtained from Samtako (South Korea) and, after acclimatization for 1 week, used for the test. The breeding chamber for test animal has controlled light and darkness cycle with an interval of 12 hours, and temperature was maintained at 23±2° C. and humidity was maintained at 50 to 60%.
Cabbage fermentation extract was used as a test sample of the test, and, specifically, fermented cabbage which has been prepared according to the method of the present invention was frozen at −80° C. and freeze-dried for 5 days (PVTFD10R, Ilshin Lab, Korea). Thus-obtained powder was dissolved in distilled water and used as a test sample. […]
Anti-atopic effect was analyzed based on visual examination, ear swelling, measurement of interferon γ in blood serum, and histopathological examination. […]

Data set [2] can be described thus: Release of nitric oxide at acidic condition like artificial stomach. In kind it is physicochemical. Particulars: HCl solution with NaCl and KCl; Sievers Nitric Oxide Analyzer 280i. The method, then:
(§1) To figure the optimum fermentation condition allowing fixating and stabilization of the nitric oxide metabolites at the highest level, production amount of nitric oxide metabolites was examined depending on various fermentation temperatures, dissolved oxygen concentrations (level), and chemical oxygen demands. For measuring the nitric oxide metabolites, amount of nitric oxide was measured under acidic condition and also reducing condition using a chemical method and calculation was made for the nitric oxide metabolites. As for the acidic condition, a condition mimicking human stomach was created using hydrochloride (HCl) solution with sodium chloride (NaCl) and potassium chloride (KCl), and then nitric oxide metabolites were released in the solution. […] Thereafter, by using a nitric oxide detector (Sievers Nitric Oxide Analyzer 280i), amount of the nitric oxide metabolites fixated in fermented substance was measured.
(§2) As a test material, a fermented substance using garlic, cabbage, onion, bean sprouts, lettuce, soybean, or cricket, and sodium nitrite were used. […] As a result, from all samples other than sodium nitrite (residual nitrite ion concentration of 5 mg/L), nitrite ion was not detected.

Data set [3] is described as follows: Release of nitric oxide at reducing condition mimicking the intestinal condition of human body. It counts as physicochemical. The note with it: vitamin C and sodium chloride in phosphate buffer solution. How it is done:
as §1, §2

For data set [4] the following is noted: samples collected after measurement at acidic or reduction condition. The method, then: as §2
Data set [5] has as its system rat injected with DOCA (high blood pressure). In words: Blood pressure-lowering effect in test animal of high blood pressure (Example 9-2). It counts as in vivo, Sprague Dawley (SD) rat. Particulars: 15-120 minutes; NaNO2 oral 18.6 mg/kg, test sample rectal 12.5 mg/kg as NO2-; once a day for 4 weeks. The method, then: The acclimated SD rat (8-week-old) was intraperitoneally injected with DOCA (deoxycorticosterone acetate; […] To determine an occurrence of high blood pressure, blood pressure was measured by using tail-cuff plethysmography (Muromachi Kikai, Japan), and animals with systolic blood pressure of at least 140 mmHg were selected and used for the test. When various plants rich in polyphenol are used, it is possible to obtain fermentation liquid containing both nitric oxide metabolites and polyphenol. In this example, fermented liquid obtained by fermenting Korean garlic was used for the test after concentration. Content of the nitric oxide metabolites in garlic fermentation concentrate which has been obtained after concentration was adjusted such that it is 200 ppm or higher in terms of NO2^−. It is preferable that the concentration step is carried out for 24 hours to 48 hours at temperature of 20° C. to 30° C. and stirring speed of 100 rpm to 300 rpm.

For data set [6], the system named is mouse injected with STZ (diabetes). In words: Oral glucose tolerance test for test animal of diabetes (Example 9-3). It counts as in vivo, C57BL/6 mouse. Particulars: glucose 2 g/kg; 15-120 minutes; NaNO2 oral 18.6 mg/kg, test sample rectal 12.5 mg/kg; once a day for 4 weeks. How it is done:
(§3) As a test animal, 4-week-old male C57BL/6 mouse was obtained from Samtako (South Korea) and used. The test animals were acclimated for 1 week under the same breeding chamber condition as Example 5 above. The acclimated C57BL/6 mouse was then intraperitoneally injected once with STZ (streptozotocin; Sigma-Aldrich, USA) solution, which has been prepared at concentration of 120 mg/kg in 0.1 M citrate buffer (pH 4.5), to induce diabetes. Two weeks after administering STZ, the mouse was fasted for 16 hours and blood was taken from tail vein of the test animal to measure fasting blood glucose using a simple blood glucose meter (Glucotrend, Roche, Germany). […] Body weight, feed intake amount, and blood glucose level were measured twice a week. After one week, blood glucose level was measured again and test animals which maintained fasting blood glucose of not less than 200 mg/dL were selected and used for the test.
(§4) In this example, fermented liquid obtained by fermenting Korean garlic was used for the test after concentration. Content of the nitric oxide metabolites in garlic fermentation concentrate which has been obtained after concentration was adjusted such that it is 200 ppm or higher in terms of NO2^−. It is preferable that the concentration step is carried out for 24 hours to 48 hours at temperature of 20° C. to 30° C. and stirring speed of 100 rpm to 300 rpm.

In data set [7] the test system is test animal of diabetes (STZ). In words: Blood markers of diabetes and diabetes complications after 4 weeks of administration (Example 9-4). Particulars: 4 weeks once a day, NaNO2 oral, test sample rectal. In kind it is in vivo, C57BL/6 mouse. The method, then:
as §3, §4
To the test animal of diabetes prepared in Example 6, NaNO2 was administered orally once a day for 4 weeks or the test sample (garlic fermentation concentrate obtained by concentration) was administered rectally also once a day for 4 weeks. On the last day of test, blood was collected from all test animals to complete the test. After that, content of blood glucose, glycated hemoglobin, insulin, creatinine, and urea nitrogen in the collected blood were measured by using a diagnostic kit. Specifically, the blood glucose, glycated hemoglobin, and insulin of Table 3 were used for determining and analyzing the anti-diabetes effect, while creatinine and urea nitrogen of Table 3 were used for determining and analyzing the effect of alleviating the symptoms of diabetes complications. A decrease in kidney function is one of the diabetes complications, and creatinine and urea nitrogen are a clinical biomarker for measuring the kidney function.

nitrite [DNFB + N]: in data set [1], the Ear thickness turned out to be 463.67 ± 77.08 μm.

`O=N[O-].[Na+]` [NaNO2, sodium nitrite]: the “release amount of nitric oxide at acidic condition like artificial stomach” value in data set [2] is 130.7 mg/L. Further, the “release amount of nitric oxide at reducing condition mimicking the intestinal condition of human body” value in data set [3] came out at 488.4 mg/L. In data set [4], the “residual nitrite ion concentration” value is 5 mg/L. Besides, in data set [5], the “change in blood pressure over time” value is recorded as “rapid decrease in blood pressure; also recorded: after the sharp decrease in initial blood pressure, the blood pressure has dramatically increased again”. In addition, in data set [6], the “blood glucose level in OGTT” value is listed as “rapid decrease in blood glucose level; also recorded: no further decrease in the blood glucose level”. This compound came in with a Creatinine in data set [7] (control group 0.25 ± 0.05) of 0.18 ± 0.03 mg/dL. For the same compound, in data set [7] (control group 7.5 ± 0.3), the Glycated hemoglobin is listed as 6.2 ± 0.3%. In data set [7] (control group 43.2 ± 0.8), this compound displayed a Urea nitrogen of 37.1 ± 0.5 mg/dL. Further, the Insulin in data set [7] (control group 80.0 ± 10.7) was determined as 150.0 ± 9.5 ng/mL. Also, the Fasting blood glucose in data set [7] (control group 480.0 ± 6.0, normal 106.0 ± 5.0) was determined as 320.0 ± 11.0 mg/dL.

Turning to citrate [DNFB + CA], in data set [1], the Ear thickness came to 593.17 ± 71.27 μm.
